Type in all cases: cell-based
For assay [1], the target named is T1, human muscarinic M2 receptor (Homo sapiens, UniProt P08172).
T1 sequence (P08172 1-466): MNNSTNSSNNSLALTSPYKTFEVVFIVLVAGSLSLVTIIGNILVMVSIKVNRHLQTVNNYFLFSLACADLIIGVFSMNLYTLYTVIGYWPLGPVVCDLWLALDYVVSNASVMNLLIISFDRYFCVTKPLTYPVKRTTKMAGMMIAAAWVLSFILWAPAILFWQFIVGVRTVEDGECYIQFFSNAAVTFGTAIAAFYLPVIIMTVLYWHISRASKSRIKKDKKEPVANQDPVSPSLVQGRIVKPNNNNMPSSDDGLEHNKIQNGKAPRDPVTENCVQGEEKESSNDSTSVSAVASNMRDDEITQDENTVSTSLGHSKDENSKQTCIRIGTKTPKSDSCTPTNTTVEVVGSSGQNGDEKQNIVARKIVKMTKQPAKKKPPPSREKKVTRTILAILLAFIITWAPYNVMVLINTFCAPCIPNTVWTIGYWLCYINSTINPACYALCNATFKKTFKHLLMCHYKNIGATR
Put plainly: Alphascreen Surefire phospho-ERK1/2 functional assay, M2. Here is the method: (§1) ERK1/2 phosphorylation is a downstream consequence of both Gq/11 and Gi/o protein coupled receptor activation, making it highly suitable for the assessment of M1, M3 (Gq/11 coupled) and M2, M4 receptors (Gi/o coupled), rather than using different assay formats for different receptor subtypes. CHO cells stably expressing the human muscarinic M1, M2, M3 or M4 receptor were plated (25K/well) onto 96-well tissue culture plates in MEM-alpha+10% dialysed FBS. Once adhered, cells were serum-starved overnight. Agonist stimulation was performed by the addition of 5 μL agonist to the cells for 5 min (37° C.). Media was removed and 50 μL of lysis buffer added. After 15 min, a 4 μL sample was transferred to 384-well plate and 7 μL of detection mixture added. Plates were incubated for 2 h with gentle agitation in the dark and then read on a PHERAstar plate reader.
(§2) pEC50 and Emax figures were calculated from the resulting data for each receptor subtype.
In general terms: Bead proximity is the source of the signal in Alpha formats.

The target in assay [2] is T2, human muscarinic M4 receptor (Homo sapiens, UniProt P08173).
T2 construct: expressed in transfected cells
T2 sequence (P08173 1-479): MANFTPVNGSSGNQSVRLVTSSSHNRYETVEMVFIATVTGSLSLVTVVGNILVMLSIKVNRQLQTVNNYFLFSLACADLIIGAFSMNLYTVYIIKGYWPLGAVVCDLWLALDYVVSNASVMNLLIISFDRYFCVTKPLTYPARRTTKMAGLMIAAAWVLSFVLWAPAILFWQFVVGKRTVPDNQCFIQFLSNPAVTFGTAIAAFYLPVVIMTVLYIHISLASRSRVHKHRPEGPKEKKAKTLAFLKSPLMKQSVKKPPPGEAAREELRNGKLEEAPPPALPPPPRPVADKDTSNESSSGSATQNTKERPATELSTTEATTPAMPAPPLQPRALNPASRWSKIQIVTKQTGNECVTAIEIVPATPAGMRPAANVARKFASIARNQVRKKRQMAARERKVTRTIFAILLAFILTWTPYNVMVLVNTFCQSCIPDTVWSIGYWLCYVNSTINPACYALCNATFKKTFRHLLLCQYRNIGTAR
Put plainly: Alphascreen Surefire phospho-ERK1/2 functional assay, M4. The method, then: as §1, §2

Assay [3] deals with T3, human muscarinic M3 receptor (Homo sapiens, UniProt P20309).
T3 construct: expressed in transfected cells
Put plainly: Alphascreen Surefire phospho-ERK1/2 functional assay, M3. Here is the method:
as §1, §2

Assay [4] addresses T4, human muscarinic M1 receptor (Homo sapiens, UniProt P11229).
T4 sequence (P11229 1-460): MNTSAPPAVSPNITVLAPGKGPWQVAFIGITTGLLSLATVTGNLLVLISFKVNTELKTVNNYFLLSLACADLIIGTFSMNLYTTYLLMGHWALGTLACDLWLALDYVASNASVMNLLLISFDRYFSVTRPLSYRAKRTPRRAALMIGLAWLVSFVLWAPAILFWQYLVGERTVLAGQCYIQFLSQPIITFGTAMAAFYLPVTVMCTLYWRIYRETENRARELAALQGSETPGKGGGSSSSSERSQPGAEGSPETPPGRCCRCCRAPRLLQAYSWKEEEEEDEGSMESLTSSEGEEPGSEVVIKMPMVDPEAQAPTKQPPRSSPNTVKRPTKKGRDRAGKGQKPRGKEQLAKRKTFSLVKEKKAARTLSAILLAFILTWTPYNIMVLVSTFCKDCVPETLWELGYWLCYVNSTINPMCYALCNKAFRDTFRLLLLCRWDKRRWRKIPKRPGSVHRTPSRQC
Put plainly: Alphascreen Surefire phospho-ERK1/2 functional assay, M1. Here is the method: as §1, §2

T3 sequence (P20309 whole entry): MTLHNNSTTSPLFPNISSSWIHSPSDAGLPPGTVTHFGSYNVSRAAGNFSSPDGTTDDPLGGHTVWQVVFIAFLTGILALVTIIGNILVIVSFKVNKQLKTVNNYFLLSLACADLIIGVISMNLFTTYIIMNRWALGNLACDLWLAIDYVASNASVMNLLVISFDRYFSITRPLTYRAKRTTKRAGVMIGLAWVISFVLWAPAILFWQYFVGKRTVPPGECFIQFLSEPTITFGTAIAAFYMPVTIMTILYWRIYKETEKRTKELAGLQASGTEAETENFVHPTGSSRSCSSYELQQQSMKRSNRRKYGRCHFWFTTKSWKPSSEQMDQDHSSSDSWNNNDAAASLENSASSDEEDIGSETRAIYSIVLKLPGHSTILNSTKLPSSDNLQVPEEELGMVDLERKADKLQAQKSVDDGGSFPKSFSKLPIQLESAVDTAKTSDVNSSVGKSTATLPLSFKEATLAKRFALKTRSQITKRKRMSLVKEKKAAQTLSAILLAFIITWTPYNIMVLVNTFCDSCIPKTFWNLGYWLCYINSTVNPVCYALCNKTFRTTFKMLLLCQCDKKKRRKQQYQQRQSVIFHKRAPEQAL

A word on the Emax: it is the size of the effect at its maximum, as opposed to the concentration needed. Turning to `CCCC(=NOC)C1CCN(C2CC3(CCN(C(=O)OCC)C3)C2)CC1` (mixture of isomers) [2-3 Mixture of two isomers], the EC50 was more than 20 µM in assay [1] (CHO cells stably expressing human M2, agonist 5 min, 37° C., read-out: pEC50 M2 (converted)); 0.02 µM in assay [2] (CHO cells stably expressing human M4, agonist 5 min, 37° C., read-out: pEC50 M4 (converted)); more than 20 µM in assay [3] (CHO cells stably expressing human M3, agonist 5 min, 37° C., read-out: pEC50 M3 (converted)); more than 20 µM in assay [4] (CHO cells stably expressing human M1, agonist 5 min, 37° C., read-out: pEC50 M1 (converted)). Besides, the Emax in assay [1] (CHO, read-out: % Emax cf. ACh, M2, CHO cells stably expressing human M2, Emax compared with ACh) turned out to be 7%; in assay [2] (CHO, read-out: % Emax cf. ACh, M4, CHO cells stably expressing human M4, Emax compared with ACh), 93%; in assay [3] (CHO, read-out: % Emax cf. ACh, M3, CHO cells stably expressing human M3, Emax compared with ACh) it was 5%; in assay [4] (CHO, read-out: % Emax cf. ACh, M1, CHO cells stably expressing human M1, Emax compared with ACh) it was 22%.

Source of the values: patent publication US11208396B2, “Oxime compounds as agonists of the muscarinic M1 and/or M4 receptor” (Heptares Therapeutics Limited, priority 2015, dated 2021).
